Measurements from paper PMC5085154 (2016).

Experiments:
[1] = system: 2(dT21):dA21 (DNA, triplex) AAAAAAAAAAAAAAAAAAAAA/TTTTTTTTTTTTTTTTTTTTT; test: competition dialysis; settings: Na+ 100 mM; 10 mM Tris-HCl, pH 7.2, room temperature; 1 μM compound; bound amount in figure
[2] = system: HTds (HTC21:HTG21) (DNA, duplex) GGGTTAGGGTTAGGGTTAGGG/CCCTAACCCTAACCCTAACCC; test: competition dialysis; settings: Na+ 100 mM; 10 mM Tris-HCl, pH 7.2, room temperature; 1 μM compound; bound amount in figure
[3] = system: HTG21 (DNA, G4) GGGTTAGGGTTAGGGTTAGGG; test: competition dialysis; settings: Na+ 100 mM; 10 mM Tris-HCl, pH 7.2, room temperature; 1 μM compound; bound amount in figure
[4] = system: FPu18T (Pu18) (DNA, G4) AGGGTGGGGAGGGTGGGG; test: FRET melting; settings: K+ (KCl, concentration not given); pH 7.2; Tm with ligand, "up to", not a shift; compound 2 μM (from mixing volumes), DNA 0.2 μM
[5] = system: Pu27 (DNA, G4) TGGGGAGGGTGGGGAGGGTGGGGAAGG; test: PCR stop assay; settings: apparent; Taq polymerase, Pu27rev reverse primer, 10 cycles, 58°C annealing; gel densitometry
[6] = system: dA21 (DNA, single strand) AAAAAAAAAAAAAAAAAAAAA; test: competition dialysis; settings: Na+ 100 mM; 10 mM Tris-HCl, pH 7.2, room temperature; 1 μM compound; bound amount in figure
[7] = system: Pu27 (DNA, G4) TGGGGAGGGTGGGGAGGGTGGGGAAGG; test: CD spectroscopy; settings: none (salt-free); 10 mM Tris-HCl, pH 7.2; 5 μM DNA; induces parallel G-quadruplex
[8] = system: Pu27 (DNA, G4) TGGGGAGGGTGGGGAGGGTGGGGAAGG; test: competition dialysis; settings: Na+ 100 mM; 10 mM Tris-HCl, pH 7.2, room temperature; 1 μM compound; strongest of set; bound amount in figure
[9] = system: dT21 (DNA, single strand) TTTTTTTTTTTTTTTTTTTTT; test: competition dialysis; settings: Na+ 100 mM; 10 mM Tris-HCl, pH 7.2, room temperature; 1 μM compound; bound amount in figure
[10] = system: Pu27 (DNA, G4) TGGGGAGGGTGGGGAGGGTGGGGAAGG; test: CD titration; settings: K+ 100 mM; 10 mM Tris-HCl, pH 7.2; 5 μM DNA; 0-5 mol equiv compound
[11] = system: HTC21 (DNA, i motif) CCCTAACCCTAACCCTAACCC; test: competition dialysis; settings: Na+ 100 mM; 10 mM Tris-HCl, pH 7.2, room temperature; 1 μM compound; bound amount in figure
[12] = system: HT-7 (DNA, G4) TTAGGGT; test: competition dialysis; settings: Na+ 100 mM; 10 mM Tris-HCl, pH 7.2, room temperature; 1 μM compound; bound amount in figure
[13] = system: HTG21mu (DNA, single strand) GAGTTAGAGTTAGAGTTAGAG; test: competition dialysis; settings: Na+ 100 mM; 10 mM Tris-HCl, pH 7.2, room temperature; 1 μM compound; bound amount in figure

Q: Which binding [1] does the source give for `CN(C)CCCNCCC(=O)Nc1ccc(C(=O)Nc2cc(Cl)ccc2-c2nc(NCCCN(C)C)c3ccccc3n2)cc1` here?
A: weak

Q: And the binding [2]?
A: weak

Q: What about the binding [3] of the same molecule?
A: yes

Q: What about the Tm [4] of the same molecule?
A: 77.5 °C

Q: And the IC50 [5]?
A: 2130 nM

Q: And the binding [6]?
A: weak

Q: And the binding [7]?
A: yes

Q: What about the binding [8] of the same molecule?
A: yes

Q: What about the binding [9] of the same molecule?
A: weak

Q: What about the binding [10] of the same molecule?
A: yes

Q: What about the binding [11] of the same molecule?
A: yes

Q: What about the binding [12] of the same molecule?
A: yes

Q: And the binding [13]?
A: weak
